From patent publication US20240010913A1, “RED FLUORESCENT SENSOR COMPOUNDS FOR THE DETECTION OF METAL IONS” (FEMTONICS KFT., priority 2020, published 2024)
Entries after “also recorded” stand apart in the source; their conditions may differ. Each block holds one compound with its values, some of them ahead of it.

Tests used:
[1] = cited from earlier work
[2] = cited from earlier work; remark: listed apart in the source
[3] = Fluorescent spectra in the presence of various Zn ion concentration (Zn-titration); type: physicochemical; settings: 0.1 M HEPES buffer pH 7.4
Experimental: (§1) Fluorescent spectra were recorded on an FLS920 Fluorescence Spectrometer from Edinburgh Instrument. A quartz cuvette with 3 mL volume and 1 cm length was used. Absorption spectra were recorded on a ThermoFisher NanoDrop 1000 Spectrophotometer. The two-photon measurements were performed on the custom Femtonics Dobos Dual system using a water immersion lens, a Mai Tai High-Power laser operated at 50 mW. For processing the images, ImageJ software was used.
FIG. 1. Fluorescence spectra of compound 28 pH 7.4 (0.1 M) HEPES buffer containing different amounts of Zn^2+. Values are not normalized, spectra were recorded at the maximum excitation wavelength.
FIG. 5. Fluorescence spectra of the compound of 29 in 0.1 M HEPES buffer (pH 7.4) containing different amounts of Zn^2+.
FIG. 7. Fluorescence spectra of the compound of 31 in pH 7.4 (0.1 M) HEPES buffer containing different amounts of Zn^2+.
FIG. 9. Fluorescence spectra of the compound of 30 in pH 7.4 (0.1 M) HEPES buffer containing different amounts of Zn^2+ ion.

[4] = UV-VIS absorption spectra; type: physicochemical
Experimental: as §1

[5] = Solubility of the product (qualitative); type: physicochemical
[6] = Aqueous solution: fluorescence and colour on addition of aqueous 1 mM ZnCl2; type: physicochemical; settings: for colour of the aqueous solution / fluorescence of the solution upon irradiation: upon addition of aqueous 1 mM ZnCl2; for fluorescence of the aqueous solution: without Zn
[7] = Ion screening (fluorescence), Zn2+; type: physicochemical; settings: for selectivity towards Zn ion: vs Ca2+, Mg2+, Na+, K+, Fe3+, Cu2+, Sn2+, Cd2+, Pb2+
[8] = Ion screening (fluorescence), Cd2+; type: physicochemical
[9] = Ion screening (fluorescence), Ca2+; type: physicochemical
[10] = Ion screening (fluorescence), Sn2+; type: physicochemical

SMILES: Oc1cccc2cccnc12 [8-hydroxyquinoline]
specificity / selectivity [1]: low

SMILES: Cc1cc(/C=N/c2cccc3cccnc23)c(O)c(CO)c1 [HQMP]
solubility / water-solubility [2]: Poor water-solubility

SMILES: O=C(CNNC(=O)c1ccccc1)Nc1cccc2cccnc12 [QLNPY]
quenching ([1]; by PPi and S^2−): quenched by PPi | specificity / selectivity [1]: not selective for Cd^2+

SMILES: COc1cc(NS(=O)(=O)c2ccc(C)cc2)c2ncccc2c1 [TSQ, 6-methoxy-(8-p-toluenesulfonamido)quinoline]
solubility / water-solubility [2]: poor water-

SMILES: CCOC(=O)COc1cc(NS(=O)(=O)c2ccc(C)cc2)c2nc(C)ccc2c1 [Zinquin Ester]
solubility / water-solubility [2]: weak solubility; also recorded: excitation, poor water-solubility

SMILES: O=C1NC(Nc2ccccc2)=N/C1=C\c1ccc2cccc(O)c2n1 [compound 28, (Z)-5-((8-hydroxyquinolin-2-yl)methylene)-2-(phenylamino)-3,5-dihydro-4H-imidazol-4-one]
maximum emitted wavelength [3]: around 545 nm | UV spectra maximum wavelength [4]: around 472 nm | Stokes shift ([4]; between UV maximum and emission maximum): 73 nm | solubility in DMSO [5]: Soluble | solubility in alcohols [5]: Soluble | solubility in water [5]: moderately soluble | colour of the aqueous solution [6]: colour changes to yellow | fluorescence of the solution upon irradiation [6]: emits fluorescence | fluorescence of the aqueous solution [6]: emits no fluorescence

SMILES: O=C(O)CN(CC(=O)O)c1cccc2ccc(/C=C3\N=C(Nc4ccccc4)NC3=O)nc12 [compound 33, (Z)-2,2′-((2-((5-oxo-2-(phenylamino)-1,5-dihydro-4H-imidazol-4-ylidene)methyl)quinolin-8-yl)azanediyl)diacetic acid]
turn on in the presence of Zn2+ [7]: does not turn on | fluorescence with Ca2+ ion [9]: increased fluorescence intensity | turn on by Sn2+ [10]: turn on the sensor

Second part, led by results:

UV spectra extends over [4]: over 500 nm | solubility in DMSO [5]: Soluble | solubility in alcohols [5]: Soluble | solubility in water [5]: Soluble
SMILES: CN(C)c1cccc2ccc(/C=C3\N=C(Nc4ccccc4)NC3=O)nc12 [compound 29, (Z)-5-((8-(dimethylamino)quinolin-2-yl)methylene)-2-(phenylamino)-3,5-dihydro-4H-imidazol-4-one]
Zn/Ca fluorescence ratio [7]: excellent | fluorescence in ion screening [7]: strong green fluorescence | selectivity towards Zn ion [7]: strong selectivity | colour of the aqueous solution [6]: colour changes to greenish | fluorescence of the solution upon irradiation [6]: emits fluorescence | fluorescence of the aqueous solution [6]: emits no fluorescence

maximum emitted wavelength [3]: around 555 nm | UV spectra extends over [4]: over 500 nm | UV spectra maximum wavelength [4]: around 476 nm | solubility in DMSO [5]: Soluble | solubility in alcohols [5]: Soluble | solubility in water [5]: moderately soluble
SMILES: CN(C)CCN(C)c1cccc2ccc(/C=C3\N=C(Nc4ccccc4)NC3=O)nc12 [compound 30, (Z)-5-((8-((2-(dimethylamino)ethyl)(methyl)amino)quinolin-2-yl)methylene)-2-(phenylamino)-3,5-dihydro-4H-imidazol-4-one]
fluorescence in ion screening [7]: strong green fluorescence | fluorescence intensity in ion screening [7]: lower intensity | selectivity towards Zn ion [7]: strong selectivity | colour of the aqueous solution [6]: colour gets brighter | fluorescence of the solution upon irradiation [6]: emits fluorescence | fluorescence of the aqueous solution [6]: emits no fluorescence

maximum emitted wavelength [3]: around 545 nm | UV spectra extends over [4]: over 500 nm | UV spectra maximum wavelength [4]: around 481 nm | solubility in DMSO [5]: Soluble | solubility in alcohols [5]: Soluble | solubility in water [5]: moderately soluble
SMILES: CN(Cc1ccccn1)c1cccc2ccc(/C=C3\N=C(Nc4ccccc4)NC3=O)nc12 [compound 31, (Z)-5-((8-(methyl(pyridin-2-ylmethyl)amino)quinolin-2-yl)methylene)-2-(phenylamino)-3,5-dihydro-4H-imidazol-4-one]
Zn/Ca fluorescence ratio [7]: good | fluorescence in ion screening [7]: strong green fluorescence | selectivity towards Zn ion [7]: good selectivity | colour of the aqueous solution [6]: colour changes to yellow | fluorescence of the solution upon irradiation [6]: emits fluorescence | fluorescence of the aqueous solution [6]: emits no fluorescence | selectivity against Cd2+ [8]: weak

solubility in DMSO [5]: Soluble | solubility in alcohols [5]: Soluble | solubility in water [5]: moderately soluble
SMILES: COc1cccc2ccc(/C=C3\N=C(Nc4ccccc4)NC3=O)nc12 [compound 32, (Z)-5-((8-methoxyquinolin-2-yl)methylene)-2-(phenylamino)-3,5-dihydro-4H-imidazol-4-onen]
colour of the aqueous solution [6]: colour changes to green | fluorescence of the solution upon irradiation [6]: emits fluorescence | fluorescence of the aqueous solution [6]: emits no fluorescence

solubility in DMSO [5]: soluble | solubility in THF [5]: Moderately soluble | solubility in the mixture of DMSO and water [5]: soluble
SMILES: O=C1NC(Nc2ccccc2)=N/C1=C\c1ccc2ccc3cccnc3c2n1 [compound 34, (Z)-5-((1,10-phenanthrolin-2-yl)methylene)-2-(phenylamino)-3,5-dihydro-4H-imidazol-4-one]

solubility in DMSO [5]: soluble | solubility in THF [5]: Moderately soluble | solubility in the mixture of DMSO and water [5]: soluble
SMILES: O=C1N=C(Nc2ccccc2)N/C1=C\c1ccc2ccc3ccc(/C=C4\NC(Nc5ccccc5)=NC4=O)nc3c2n1 [compound 35, (5Z,5′Z)-5,5′-((1,10-phenanthroline-2,9-diyl)bis(methanylylidene))bis(2-(phenylamino)-1,5-dihydro-4H-imidazol-4-one)]
